# Data as given in patent US6329339A, “Pharmaceutical antiviral composition comprising glycyrrhizic acid and at least one protein endowed with antiviral activity” (priority 1997, dated 2001).
# How the values were obtained:
# [1] = test system: Herpes Simplex Virus type 1; conditions: cited from earlier work
# [2] = in vivo, cited from earlier work
# HSV1 [3] = test: Inhibition of HSV1 viral plaques on VERO cells; format: cell-based, Herpes Simplex Virus type 1; conditions: for Inhibition (%) of viral plaques with various lysozymes: percentage of the control ± standard deviation
# [4] = test system: virus (viral replication); conditions: cited from earlier work
# [5] = test system: infected cells, synthesis of glyco-proteins; conditions: cited from earlier work
# [6] = test system: normal cells, synthesis of glyco-proteins; conditions: cited from earlier work
# [7] = test system: normal cells, synthesis of proteins; conditions: even at doses of 4 mM; cited from earlier work
# [8] = test system: infected cells, synthesis of proteins; conditions: even at doses of 4 mM; cited from earlier work
# HSV1 [9] = conditions: 8 mM, cited from earlier work
# HSV1 [10] = conditions: Arch. Virol. 1995; cited from earlier work
# [11] = test system: human immunodeficiency virus; conditions: in vitro; cited from earlier work
# human cytomegalovirus = conditions: in vitro; cited from earlier work
# [12] = Human alphaherpesvirus 1, Vero, read-out: Glycyrrhizic acid - Inhibition (%) of viral plaques
compound,measurement,setting,value
Nc1nc2c(ncn2COCCO)c(=O)[nH]1 [aciclovir],efficacy during the first infection,[1]; administered during the first infection,fairly efficient
same,prevention of re-infection,[1]; re-infection by Herpes Simplex Virus type 1,not preventing re-infection
same,efficacy in recurring infections,[1]; recurring infections,not very effective
same,side effects of oral treatment,[2]; po,"nausea, diarrhoea, itching, headaches, renal inadequacies and nephrotoxicity"
same,side effects of topical use,[2],often causes burning and irritation of mucous membranes
CC1(C)[C@@H](O[C@H]2O[C@H](C(=O)O)[C@@H](O)[C@H](O)[C@H]2O[C@@H]2O[C@H](C(=O)O)[C@@H](O)[C@H](O)[C@H]2O)CC[C@]2(C)[C@H]3C(=O)C=C4[C@@H]5C[C@@](C)(C(=O)O)CC[C@]5(C)CC[C@@]4(C)[C@]3(C)CC[C@@H]12 [glycyrrhizic acid],inhibition at 200 µg/mL,HSV1 [3]; [12],0%
same,inhibition at 400 µg/mL,HSV1 [3]; [12],10 ± 4%
same,inhibition at 600 µg/mL,HSV1 [3]; [12],27 ± 7%
same,inhibition at 800 µg/mL,HSV1 [3]; [12],50 ± 8%
same,inhibition at 1000 µg/mL,HSV1 [3]; [12],75 ± 12%
same,inhibition of viral replication,[4]; 0.5 mM,50%
same,reduction of the virus,[4]; 1 mM,80%
same,inhibition of production of the virus,[4]; 4 mM,99%
same,antiviral activity,[4],a certain antiviral activity
same,"reduction in the incorporation of glucosamine-H^3, infected cells","[5]; 0.5 mM, infected cells",more than 10%
same,reduction in the synthesis of glyco-protein in infected cells,"[5]; 1 mM, infected cells",20%
same,synthesis of viral glycoproteins,[5]; at antiviral doses,largely inhibits
same,"inhibition of incorporation of glucosamine-H^3, normal cells","[6]; 0.5 mM, normal cells",no inhibition
same,inhibition of the synthesis of glyco-proteins in the control,"[6]; 1 mM, control (normal) cells",no inhibition
same,synthesis of glyco-proteins in the normal cells,"[6]; 4 mM, normal cells",slightly altered
same,cell glycoproteins synthesis,[6]; only at very high doses,only at very high doses does it also inhibit
same,"action on the synthesis of proteins, normal cells",[7],practically irrelevant
same,"action on the synthesis of proteins, infected cells",[8],practically irrelevant
same,Viral production after 12 hours,"HSV1 [9]; contact 2 hours at 37° C., 12 hours (control 3 × 10^6)",4.2 × 10^4 PFU/ml
same,Viral production after 17 hours,"HSV1 [9]; contact 2 hours at 37° C., 17 hours (control 5.4 × 10^6)",1.2 × 10^4 PFU/ml
same,inhibition at 12 hours from the infection,HSV1 [9]; 12 hours,about 2 logarithms
same,inhibition at 22 hours from infection,HSV1 [9]; 22 hours,~3 logarithms
same,inhibition at 22 hours from infection (%),HSV1 [9]; 22 hours,99.9%
same,decrease in infection,"HSV1 [9]; at 12, 17 and 22 hours",strong decrease in infection
chicken lysozyme: chicken lysozyme supplied by SIGMA,Inhibition (%) of viral plaques with various lysozymes,HSV1 [3]; 0.5 mg/ml,20 ± 4%
same,Inhibition (%) of viral plaques with various lysozymes,HSV1 [3]; 1 mg/ml,49 ± 5%
same,Inhibition (%) of viral plaques with various lysozymes,HSV1 [3]; 2 mg/ml,60 ± 6%
same,Inhibition (%) of viral plaques with various lysozymes,HSV1 [3]; 4 mg/ml,71 ± 6%
same,Inhibition (%) of viral plaques with various lysozymes,HSV1 [3]; 6 mg/ml,82 ± 4%
same,dose dependence of the action,HSV1 [3]; in words,dose-dependent
same,formation of herpetic virus plaques on VERO cells,HSV1 [3]; in words,significantly inhibits
lactoferrin,antiviral / antiherpetic (HSV1) activity of lactoferrin,HSV1 [10],antiherpetic (HSV1) activity
same,activity against human immunodeficiency virus replication,[11],potent activity
same,activity against human cytomegalovirus replication,human cytomegalovirus,potent activity
